Data taken from patent US20230406911A1, “COMPOSITIONS AND METHODS FOR PREVENTING, INHIBITING, DISRUPTING, OR TREATING A POLYMICROBIAL BIOFILM” (priority 2020, published 2023).

Assays:
[1] = system: established NTHI biofilms; details: antibiotic at concentrations ≥4-fold below the MIC; Brockson et al., 2014; cited from earlier work
[2] = system: NRel M. catarrhalis; details: Mokrzan et al., 2018; cited from earlier work
[3] = system: NTHI; test: Antibiotic sensitivity of biofilm-resident, planktonic or NRel NTHI; format: cell-based, Nontypeable Haemophilus influenzae strain 86-028NP; details: for sensitivity of biofilm-resident NTHI to killing: 16 h biofilm, same concentrations as for planktonic/NRel; for sensitivity of biofilm-resident NTHI to killing / killing of planktonic NTHI at the concentration chosen for the assay: 2 h antibiotic exposure; for sensitivity of anti-IHF NRel to killing, compared with planktonic NTHI / sensitivity of anti-IHF NRel to killing, compared with biofilm-resident NTHI: NRel collected after 15 min anti-IHF IgG, TMP-SMX 0.09/0.45 μg/ml, AMC 0.30/0.15 μg/ml; for sensitivity of anti-IHF NRel to killing, compared with planktonic NTHI: 2 h (FIG. 5d, 5e); for sensitivity of anti-IHF NRel to killing, compared with biofilm-resident NTHI / sensitivity of anti-rsPilA NRel to killing, compared with biofilm-resident NTHI: 2 h, P≤0.0001; for susceptibility of time-matched anti-IHF NRel to killing, compared with planktonic NTHI: NRel collected after 2 h anti-IHF IgG, TMP-SMX 0.94/4.7 μg/ml, AMC 2.5/1.25 μg/ml (FIG. 6c, 6d); for susceptibility of time-matched anti-rsPilA NRel to killing, compared with planktonic NTHI: NRel collected after 2 h anti-rsPilA IgG, TMP-SMX 0.09/0.45 μg per ml, AMC 0.3/0.15 μg per ml (FIG. 6a, 6b); for sensitivity of anti-rsPilA NRel to killing, compared with planktonic NTHI / sensitivity of anti-rsPilA NRel to killing, compared with biofilm-resident NTHI: NRel collected after 6 h anti-rsPilA IgG, TMP-SMX 0.94/4.7 μg per ml, AMC 2.5/1.25 μg per ml; for sensitivity of anti-rsPilA NRel to killing, compared with planktonic NTHI: 2 h (FIG. 5b, 5c); for killing of planktonic NTHI at the concentration chosen for the assay: mid-log planktonic NTHI density-matched to NRel
Experimental: To avoid excessive manipulation or dilution of NRel NTHI, and to permit direct comparison of equal numbers of planktonic and NRel, Applicant adjusted the planktonic cell density to the same CFU per ml as the NRel population in each experiment as follows: NTHI were incubated statically to mid log phase growth then diluted to either 3×10^8 CFU/ml for comparison with anti-rsPilA NRel collected at 6 h, or to 2×10^8 CFU/ml for comparison with anti-IHF NRel collected at 15 min (see FIG. 1). Applicant then determined the concentrations of amoxicillin (Sigma-Aldrich, St. Louis, MO) and clavulanate (U.S. Pharmacopeia, Rockville, MD), or of trimethoprim (Sigma-Aldrich) and sulfamethoxazole (Santa Cruz Biotech, Dallas, TX) that killed approximately 25% of planktonic NTHI at each density. The same antibiotic concentrations were used for the anti-IHF or anti-rsPilA NRel, the density-matched (same CFU/ml) planktonic NTHI, and the adherent biofilm for each relevant experiment. […] Applicant then assessed killing of anti-IHF or anti-rsPilA NRel by concentrations of amoxicillin plus clavulanic acid (“augmentin”, AMC) or trimethoprim plus sulfamethoxazole (TMP-SMX) that killed 25% of the planktonic NTHI at the same density.
Anti-rsPilA or anti-IHF NRel were collected and sonicated as described above. After sonication for 2 min in a water bath sonicator to break up any NTHI aggregates, NRel or planktonic NTHI were incubated with the indicated antibiotics at 37° C. for 2 h, then serially diluted and plated on chocolate agar to quantify viable NTHI. To assay biofilm-resident NTHI, biofilms were established for 16 h at 37° C. as described above, washed twice with DPBS and incubated in sBHI supplemented with the indicated antibiotics at 37° C. After 2 h, biofilm-resident NTHI were collected by forceful pipetting, sonicated for 2 min and enumerated as described above. All experiments were performed at least three times on separate days with two or three technical replicates for each treatment and control group.

[4] = system: NRel NTHI; details: Mokrzan et al., 2018; cited from earlier work

Compound	sensitivity to killing of NTHI biofilms co-exposed to anti-DNABII antiserum, compared to planktonic counterparts [1]	susceptibility of NRel M. catarrhalis released by anti-rsPilA, compared with growth on agar [2]	sensitivity of biofilm-resident NTHI to killing [3]	sensitivity of anti-IHF NRel to killing, compared with planktonic NTHI [3]	sensitivity of anti-IHF NRel to killing, compared with biofilm-resident NTHI [3]	susceptibility of time-matched anti-IHF NRel to killing, compared with planktonic NTHI [3]	susceptibility of time-matched anti-rsPilA NRel to killing, compared with planktonic NTHI [3]	sensitivity of anti-rsPilA NRel to killing, compared with planktonic NTHI [3]	sensitivity of anti-rsPilA NRel to killing, compared with biofilm-resident NTHI [3]	killing of planktonic NTHI at the concentration chosen for the assay [3] [%]	susceptibility of NRel NTHI released by anti-rsPilA, compared with growth on agar [4]
CC1(C)S[C@@H]2[C@H](NC(=O)[C@H](N)c3ccccc3)C(=O)N2[C@H]1C(=O)O [ampicillin]	significantly more sensitive	–	–	–	–	–	–	–	–	–	–
CC[C@H]1OC(=O)[C@H](C)[C@@H](O[C@H]2C[C@@](C)(OC)[C@@H](O)[C@H](C)O2)[C@H](C)[C@@H](O[C@@H]2O[C@H](C)C[C@H](N(C)C)[C@H]2O)[C@](C)(OC)C[C@@H](C)C(=O)[C@H](C)[C@@H](O)[C@]1(C)O [clarithromycin]	–	more susceptible	–	–	–	–	–	–	–	–	–
amoxicillin plus clavulanic acid [AMC]	significantly more sensitive	–	minimal sensitivity	significantly more sensitive	significantly more sensitive	significantly more susceptible	equally susceptible	only equally as sensitive	significantly more sensitive	~25	–
trimethoprim plus sulfamethoxazole [TMP-SMX]	–	–	minimal sensitivity	only equally as sensitive	significantly more sensitive	equally susceptible	significantly more susceptible	significantly greater	significantly more sensitive	~25	more susceptible
